Test results taken from patent US12275850B2, “Organic-inorganic hybrid material comprising a metal and lignin, processes for preparing the same and uses thereof” (UPM-KYMMENE CORPORATION, priority 2018, dated 2025).

Experiments:
Assay in all cases: MIC, agar dilution / broth microdilution
Format in all cases: cell-based
Details in all cases: mainly agar dilution; g/l of material; for Copper MIC refers to concentration of copper
[1] = system: Botritis cinerea
Method: (§1) The antimicrobial activity of organic-inorganic hybrid materials of the present invention was evaluated through in vitro test of antimicrobial susceptibility with broth microdilution method and agar dilution method (CLSI protocol—Clinical and Laboratory Standards Institute). […] Agar dilution assay was used: the organic-inorganic hybrid materials were incorporated at different concentrations into the agar medium (specific for each microorganism) and after solidification of the medium, the inoculum (10^4 CFU/ml for the fungi and […] for the bacteria) was applied to the agar surface. Broth microdilution assay: the organic-inorganic hybrid materials were diluted into specific liquid media in the presence of a well-defined microbial suspension (10^4 CFU/ml for the fungi and […] for the bacteria). In the broth microdilution assay, the organic-inorganic hybrid materials were diluted into specific liquid media, but they resulted insoluble with the formation of precipitates on the bottom of the wells, consequently the MIC were mainly determinate with agar dilution assay. Two controls were prepared for the tests: a positive control of activity through use of Miconazole (against fungi) and Ceftriaxone (against bacteria). All the tests have been carried out in triplicate, giving very similar inhibition results. In parenthesis, the concentration (g/l) of copper relative to the corresponding copper-lignin derivative. For copper sulphate pentahydrate (copper) and copper hydroxide (copper 2) the MIC refer to the concentration of copper (g/l): […]

[2] = system: Erwinia amylovora
Method: as §1

[3] = system: Campylobacter jejuni
Method: as §1

[4] = system: Staphylococcus aureus
Method: as §1

[5] = system: Fusarium solani
Method: as §1

[6] = system: Septoria tritici
Method: as §1

[7] = system: Salmonella enteriditis
Method: as §1

[8] = system: Xanthomonas campestris
Method: as §1

[9] = system: Pseudomonas syringae pv. actinidiae
Method: as §1

[10] = system: Xanthomonas arboricola pv. pruni
Method: as §1

[11] = system: Rizoctonia solani
Method: as §1

[12] = system: Monilia laxa
Method: as §1

[13] = system: Alternaria solani
Method: as §1

[14] = system: Escherichia coli
Method: as §1

[15] = system: Pseudomonas aeruginosa
Method: as §1

[16] = system: Candida albicans
Method: as §1

Structure (SMILES): [Cu+2].[OH-].[OH-] [Copper, Copper hydroxide]
- MIC (g/l) B. cinerea [1]: 5.2 g/L
- MIC (g/l) E. amylovora [2]: 0.65 g/L
- MIC (g/l) C. jejuni [3]: <0.16 g/L
- MIC (g/l) S. aureus [4]: 0.32 g/L
- MIC (g/l) F. solani [5]: 10.4 g/L
- MIC (g/l) S. tritici [6]: 0.65 g/L
- MIC (g/l) S. enteridis [7]: 0.65 g/L
- MIC (g/l) X. campestris [8]: 0.32 g/L
- MIC (g/l) P. syringae [9]: 0.32 g/L
- MIC (g/l) X. arboricola [10]: <0.16 g/L
- MIC (g/l) R. solani [11]: 0.32 g/L
- MIC (g/l) M. laxa [12]: 0.65 g/L
- MIC (g/l) A. solani [13]: 5.2 g/L
- MIC (g/l) E. coli [14]: 0.32 g/L
- MIC (g/l) P. aeruginosa [15]: 1.30 g/L
- MIC (g/l) C. albicans [16]: 1.30 g/L
